Results taken from patent US12486278B2, “MASP-2 inhibitors and methods of use” (Omeros Corporation, priority 2019, dated 2025).
pKi: −log10 of the molar value. Structures can show the parent of a compound that is named as a salt.

These molecules were tested against T1, MASP-2 (CCP1-CCP2-SP) (Homo sapiens, UniProt O00187) (assay: Enzymatic Assay for MASP-2 (fluorogenic substrate)). Conditions: fluorogenic substrate based on C2 cleavage site; room temperature, 20 min; 20 mM HEPES pH 7.4, 140 mM NaCl, 0.1% Tween 20.
T1 construct: 15 μL of Enzyme MASP-2 (CCP1-CCP2-SP) in Assay Buffer
T1 sequence (O00187 445-686 limits assumed): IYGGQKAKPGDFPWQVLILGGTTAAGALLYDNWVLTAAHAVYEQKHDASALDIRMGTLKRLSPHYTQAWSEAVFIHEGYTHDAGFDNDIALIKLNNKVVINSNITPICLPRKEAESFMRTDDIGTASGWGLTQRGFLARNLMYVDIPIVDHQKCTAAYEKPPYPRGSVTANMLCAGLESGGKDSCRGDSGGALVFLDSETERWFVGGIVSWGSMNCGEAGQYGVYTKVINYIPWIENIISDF
T1 sequence (O00187 298-444 partner limits assumed): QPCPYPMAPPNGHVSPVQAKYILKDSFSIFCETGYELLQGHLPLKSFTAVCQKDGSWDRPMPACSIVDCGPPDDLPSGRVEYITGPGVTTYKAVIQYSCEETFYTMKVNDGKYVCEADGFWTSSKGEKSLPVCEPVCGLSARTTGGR
Assay type: biochemical
Experimental: The MASP-2 assay utilizes a fluorogenic substrate, based on the cleavage site for its natural substrate C2. The assay is run at room temperature in an assay buffer containing 20 mM HEPES, pH 7.4, 140 mM NaCl and 0.1% Tween 20. Assay parameters are adjusted such that the assay is linear with respect to time, enzyme, and substrate concentrations. Under these optimized assays conditions, IC50 values are equivalent to Ki values, except in a few cases of “tight binding” inhibitors. Cases of “tight binding” or possible “slow binding” inhibitors are handled by the methods described in Copeland R. A. (2013) Evaluation of Enzyme Inhibitors in Drug Discovery. 2nd Ed., John Wiley and Sons, Inc., Chapters 5-7.
The MASP-2 assay protocol is carried out as follows. Test compounds are serially diluted in DMSO and then 100 nL of each dilution is transferred to the assay plate(s). 10 μL of Assay Buffer is added, followed by 15 μL of Enzyme MASP-2 (CCP1-CCP2-SP) in Assay Buffer. 15 μL of Substrate in Assay Buffer is then added and mixed to start the reactions. After 20 min at room temperature, 15 μL of a stop solution (0.1 M acetic acid) is added, mixed and the plates are read on a SpectraMax i3x Microplate Reader and exported as Excel files. Each assay plate included a “no inhibitor” (DMSO Only) control, a “no enzyme” control and a reference inhibitor control. % Activity values=100*(average test comp. fluorescence−average “no enzyme” fluorescence)/(average “DMSO only” fluorescence−average “no enzyme” fluorescence). IC50 and Ki values are very reproducible, falling well within ±2-fold.
With `C[C@H](NC(=O)[C@H]1C[C@H](Cc2ccc(F)c(Cl)c2)CN1)C(=O)NCc1cnc2[nH]cc(Cl)c2c1` [Compound I-25, (2R,4S)—N—((S)-1-(((3-Chloro-1H-Pyrrolo[2,3-B]Pyridin-5-Yl)Methyl)Amino)-1-Oxopropan-2-Yl)-4-(3-Chloro-4-Fluorobenzyl)Pyrrolidine-2-Carboxamide Trifluoroacetate] the pKi was over 6.30.
Molecule `CCN1C[C@@H](Cc2ccc(F)c(Cl)c2)C[C@@H]1C(=O)N[C@@H](C)C(=O)NCc1cnc2c(c1)c(Cl)cn2C` [Compound I-26, (2R,4S)—N—((S)-1-(((3-Chloro-1-Methyl-1H-Pyrrolo[2,3-B]Pyridin-5-Yl)Methyl)Amino)-1-Oxopropan-2-Yl)-4-(3-Chloro-4-Fluorobenzyl)-1-Ethylpyrrolidine-2-Carboxamide] has a pKi of over 6.30.
For `CCN1C[C@@H](Cc2ccc(F)c(Cl)c2)C[C@@H]1C(=O)N[C@@H](C)C(=O)NCc1cnc2[nH]cc(Cl)c2c1` [Compound I-27, (2R,4S)—N—((S)-1-(((3-Chloro-1H-Pyrrolo[2,3-B]Pyridin-5-Yl)Methyl)Amino)-1-Oxopropan-2-Yl)-4-(3-Chloro-4-Fluorobenzyl)-1-Ethylpyrrolidine-2-Carboxamide], the pKi was over 6.30.
Molecule `CCOC(=O)CCN1CC[C@H](c2ccccc2)C[C@@H]1C(=O)N[C@@H](C)C(=O)NCc1cc(Cl)ccc1-n1cnnn1` [Compound I-28, Ethyl 3-((2R,4S)-2-(((S)-1-((5-Chloro-2-(1H-Tetrazol-1-Yl)Benzyl)Amino)-1-Oxopropan-2-Yl)Carbamoyl)-4-Phenylpiperidin-1-Yl)Propanoate] has a pKi of 5.00 to 5.60.
In the case of `C[C@H](NC(=O)[C@H]1C[C@@H](c2ccccc2)CCN1CCC(=O)O)C(=O)NCc1cc(Cl)ccc1-n1cnnn1` [Compound I-29, 3-((2R,4S)-2-(((S)-1-((5-Chloro-2-(1H-Tetrazol-1-Yl)Benzyl)Amino)-1-Oxopropan-2-Yl)Carbamoyl)-4-Phenylpiperidin-1-Yl)Propanoic Acid Trifluoroacetate], the pKi was 5.00 to 5.60.
`C[C@H](NC(=O)[C@H]1C[C@H](Cc2ccccc2)CN1)C(=O)NCc1ccc2c(c1)ncn2C` [Compound I-30, (2R,4S)-4-Benzyl-N—((S)-1-(((1-Methyl-1H-Benzo[D]Imidazol-5-Yl)Methyl)Amino)-1-Oxopropan-2-Yl)Pyrrolidine-2-Carboxamide Trifluoroacetate] gave a pKi of 5.00 to 5.60.
With `CCOC(=O)CCN1CC[C@H](c2ccccc2)C[C@@H]1C(=O)N[C@@H](C)C(=O)NCc1ccc(C(=N)N)cc1` [Compound I-31, Ethyl 3-((2R,4S)-2-(((S)-1-((4-Carbamimidoylbenzyl)Amino)-1-Oxopropan-2-Yl)Carbamoyl)-4-Phenylpiperidin-1-Yl)Propanoate] the pKi was over 6.30.
Molecule `C[C@H](NC(=O)[C@H]1C[C@@H](c2ccccc2)CCN1CCC(=O)O)C(=O)NCc1ccc(C(=N)N)cc1` [Compound I-32, 3-((2R,4S)-2-(((S)-1-((4-Carbamimidoylbenzyl)Amino)-1-Oxopropan-2-Yl)Carbamoyl)-4-Phenylpiperidin-1-Yl)Propanoic Acid Di-Trifluoroacetate] has a pKi of over 6.30.
For `Cc1nc(N)ccc1CNC(=O)[C@H](C)NC(=O)[C@H]1C[C@H](Cc2ccc(F)c(Cl)c2)CN1CC(=O)O` [Compound I-33, 2-((2R,4S)-2-(((S)-1-(((6-Amino-2-Methylpyridin-3-Yl)Methyl)Amino)-1-Oxopropan-2-Yl)Carbamoyl)-4-(3-Chloro-4-Fluorobenzyl)Pyrrolidin-1-Yl)Acetic Acid Di-Trifluoroacetate], the pKi was over 6.30.
Work on `C[C@H](NC(=O)[C@H]1C[C@@H](c2ccccc2)CCN1CC(=O)O)C(=O)NCc1ccc(C(=N)N)cc1` [Compound I-34, 2-((2R,4S)-2-(((S)-1-((4-Carbamimidoylbenzyl)Amino)-1-Oxopropan-2-Yl)Carbamoyl)-4-Phenylpiperidin-1-Yl)Acetic Acid Di-Trifluoroacetate] yielded a pKi of over 6.30.
`C[C@H](NC(=O)[C@H]1C[C@H](c2ccccc2)CN1CC(=O)O)C(=O)NCc1ccc(C(=N)N)cc1` [Compound I-35, 2-((2R,4R)-2-(((S)-1-((4-Carbamimidoylbenzyl)Amino)-1-Oxopropan-2-Yl)Carbamoyl)-4-Phenylpyrrolidin-1-Yl)Acetic Acid Di-Trifluoroacetate] gave a pKi of over 6.30.
In the case of `C[C@H](NC(=O)[C@H]1C[C@H](Cc2ccc(F)c(Cl)c2)CN1CCC(=O)O)C(=O)NCc1ccc(C(=N)N)cc1` [Compound I-36, 3-((2R,4S)-2-(((S)-1-((4-Carbamimidoylbenzyl)Amino)-1-Oxopropan-2-Yl)Carbamoyl)-4-(3-Chloro-4-Fluorobenzyl)Pyrrolidin-1-Yl)Propanoic Acid Di-Trifluoroacetate], the pKi was over 6.30.
`C[C@H](NC(=O)[C@H]1C[C@H](Cc2ccc(F)cc2)CN1CCC(=O)O)C(=O)NCc1ccc(C(=N)N)cc1` [Compound I-37, 3-((2R,4S)-2-(((S)-1-((4-Carbamimidoylbenzyl)Amino)-1-Oxopropan-2-Yl)Carbamoyl)-4-(4-Fluorobenzyl)Pyrrolidin-1-Yl)Propanoic Acid Di-Trifluoroacetate] showed a pKi of over 6.30.
`C[C@H](NC(=O)[C@H]1C[C@@H](c2ccccc2)CCN1CCP(=O)(O)O)C(=O)NCc1ccc(C(=N)N)cc1` [Compound I-38, (2-((2R,4S)-2-(((S)-1-((4-Carbamimidoylbenzyl)Amino)-1-Oxopropan-2-Yl)Carbamoyl)-4-Phenylpiperidin-1-Yl)Ethyl)Phosphonic Acid Di-Trifluoroacetate] gave a pKi of over 6.30.
For `C[C@H](NC(=O)[C@H]1C[C@@H](c2ccccc2)CCN1CCP(=O)(O)O)C(=O)NCc1cc2cnccc2[nH]1` [Compound I-39, (2-((2R,4S)-2-(((S)-1-(((1H-Pyrrolo[3,2-C]Pyridin-2-Yl)Methyl)Amino)-1-Oxopropan-2-Yl)Carbamoyl)-4-Phenylpiperidin-1-Yl)Ethyl)Phosphonic Acid Di-Trifluoroacetate], the pKi was over 6.30.
Molecule `C[C@H](NC(=O)[C@H]1C[C@@H](c2ccccc2)CCN1CCCP(=O)(O)O)C(=O)NCc1cc(Cl)ccc1-n1cnnn1` [Compound I-40, (3-((2R,4S)-2-(((S)-1-((5-Chloro-2-(1H-Tetrazol-1-Yl)Benzyl)Amino)-1-Oxopropan-2-Yl)Carbamoyl)-4-Phenylpiperidin-1-Yl)Propyl)Phosphonic Acid Di-Trifluoroacetate] has a pKi of 5.60 to 6.30.
`Cc1nc(N)ccc1CNC(=O)[C@H](C)NC(=O)[C@H]1C[C@@H](c2ccccc2)CCN1CCNS(C)(=O)=O` [Compound I-41, (2R,4S)—N—((S)-1-(((6-Amino-2-Methylpyridin-3-Yl)Methyl)Amino)-1-Oxopropan-2-Yl)-1-(2-(Methylsulfonamido)Ethyl)-4-Phenylpiperidine-2-Carboxamide Di-Trifluoroacetate] showed a pKi of 5.00 to 5.60.
For `C[C@H](NC(=O)[C@H]1C[C@@H](c2ccccc2)CCN1CCNS(C)(=O)=O)C(=O)NCc1cc2cnccc2[nH]1` [Compound I-42, (2R,4S)—N—((S)-1-(((1H-Pyrrolo[3,2-C]Pyridin-2-Yl)Methyl)Amino)-1-Oxopropan-2-Yl)-1-(2-(Methylsulfonamido)Ethyl)-4-Phenylpiperidine-2-Carboxamide Di-Trifluoroacetate], the pKi was over 6.30.
With `C[C@H](NC(=O)[C@H]1C[C@@H](c2ccccc2)CCN1CCNS(C)(=O)=O)C(=O)NCc1ccc(C(=N)N)cc1` [Compound I-43, (2R,4S)—N—((S)-1-((4-Carbamimidoylbenzyl)Amino)-1-Oxopropan-2-Yl)-1-(2-(Methylsulfonamido)Ethyl)-4-Phenylpiperidine-2-Carboxamide Di-Trifluoroacetate] the pKi was over 6.30.
